According to ChEMBL document CHEMBL4043153, “Lead selection of antiparasitic compounds from a focused library of benzenesulfonyl derivatives of heterocycles” (Bioorg Med Chem Lett, 2017):

Assays:
Type in all cases: functional
Leishmania donovani [1] = test: Antiparasitic activity against Leishmania donovani MHOM-ET-67/L82 axenic amastigotes assessed as growth inhibition at 0.8 ug/ml after 72 hrs by resazurin dye-based fluorometric analysis relative to control; conditions: MHOM-ET-67/L82, 72 h, read-out: GI
Leishmania donovani [2] = test: Antiparasitic activity against Leishmania donovani MHOM-ET-67/L82 axenic amastigotes assessed as growth inhibition at 4.8 ug/ml after 72 hrs by resazurin dye-based fluorometric analysis relative to control; conditions: MHOM-ET-67/L82, 72 h, read-out: GI
Trypanosoma cruzi [3] = test: Antiparasitic activity against Trypanosoma cruzi Tulahuen C4 intracellular amastigotes infected in rat L6 cells assessed as growth inhibition at 0.8 ug/ml after 96 hrs by CPRG/Nonidet reagent based photometric analysis relative to control; conditions: Tulahuen C4, L6, 96 h, read-out: GI
Trypanosoma cruzi [4] = test: Antiparasitic activity against Trypanosoma cruzi Tulahuen C4 intracellular amastigotes infected in rat L6 cells assessed as growth inhibition at 4.8 ug/ml after 96 hrs by CPRG/Nonidet reagent based photometric analysis relative to control; conditions: Tulahuen C4, L6, 96 h, read-out: GI
Plasmodium falciparum [5] = test: (§1) Antiparasitic activity against intraerythrocytic form of chloroquine/pyrimethamine-resistant Plasmodium falciparum K1 infected in human RBC assessed as growth inhibition at 0.8 ug/ml preincubated for 48 hrs followed by [3H]-hypoxanthine addition measured after 24 hrs by liquid scintillation counting analysis relative to control; conditions: read-out: GI
Plasmodium falciparum [6] = test: as §1, with “4.8” for “0.8”; conditions: read-out: GI
[7] = system: Trypanosoma brucei rhodesiense; test: Antiparasitic activity against Trypanosoma brucei rhodesiense STIB 900 trypomastigote bloodstream form assessed as growth inhibition at 0.8 ug/ml after 72 hrs by resazurin dye-based fluorometric analysis relative to control; conditions: STIB 900, 72 h, read-out: GI
[8] = system: Trypanosoma brucei rhodesiense; test: Antiparasitic activity against Trypanosoma brucei rhodesiense STIB 900 trypomastigote bloodstream form assessed as growth inhibition at 4.8 ug/ml after 72 hrs by resazurin dye-based fluorometric analysis relative to control; conditions: STIB 900, 72 h, read-out: GI

SMILES | inhibition of growth at 0.8 µg/mL (Leishmania donovani [1]) [%] | inhibition of growth at 4.8 µg/mL (Leishmania donovani [2]) [%] | inhibition of growth at 0.8 µg/mL (Trypanosoma cruzi [3]) [%] | inhibition of growth at 4.8 µg/mL (Trypanosoma cruzi [4]) [%] | inhibition of growth at 0.8 µg/mL (Plasmodium falciparum [5]) [%] | inhibition of growth at 4.8 µg/mL (Plasmodium falciparum [6]) [%] | inhibition of growth at 0.8 µg/mL [7] [%] | inhibition of growth at 4.8 µg/mL [8] [%]
Cc1ccc(S(=O)(=O)N2c3ccccc3CC2C)cc1 (stereo unspecified) | 9.4 | 5.3 | 0 | 93.4 | 7.7 | 53.1 | 3.5 | 0
CC(=O)c1ccc(S(=O)(=O)N2CCc3ccccc3C2)cc1 | 20.1 | 46.1 | 0 | 13.4 | 0.3 | 9.7 | 0 | 0
CC(C)(C)c1ccc(S(=O)(=O)N2CCc3ccccc32)cc1 | 49.4 | 100 | 5.2 | 54.1 | 29.5 | 99.1 | 1.9 | 5.8
CC1CCc2ccccc2N1S(=O)(=O)c1ccccc1[N+](=O)[O-] (stereo unspecified) | 22.4 | 66.3 | 7.6 | 43.7 | 8.8 | 67.5 | 0.4 | 2.7
CC1Cc2ccccc2N1S(=O)(=O)c1ccc(F)cc1 (stereo unspecified) | 4 | 47 | 0 | 4.8 | 12.6 | 65 | 2.3 | 0
CC(C)(C)c1ccc(S(=O)(=O)n2nnc3ccccc32)cc1 | 13.3 | 42.8 | 8.5 | 7.4 | 0 | 0 | 8.8 | 0
O=S(=O)(c1ccc(C(F)(F)F)cc1)n1ccc2ccccc21 | 15.9 | 52.8 | 0 | 0 | 4.3 | 53.2 | 1.4 | 0
COc1ccc(S(=O)(=O)N2CCc3ccccc32)cc1 | 18.6 | 42.6 | 12.1 | 27.4 | 0 | 11.6 | 0 | 0
O=[N+]([O-])c1ccccc1S(=O)(=O)n1ccc2ccccc21 | – | – | < 40 | – | – | – | – | –
Nc1nc(N)nc(Nc2ccc([As]3SCC(CO)S3)cc2)n1 (stereo unspecified) [MELARSOPROL] | – | – | – | – | – | – | 44.4 | 98.3
O=C(Cn1ccnc1[N+](=O)[O-])NCc1ccccc1 [BENZNIDAZOLE] | – | – | 63.3 | 98.5 | – | – | – | –
C[C@@H]1CC[C@H]2[C@@H](C)C(=O)O[C@@H]3O[C@@]4(C)CC[C@@H]1[C@]32OO4 [ARTEMISININ] | – | – | – | – | 80 | 100 | – | –
